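How tested: cells in 96-well plates exposed to compound for 48 hours at five concentrations. GI50 = concentration required for 50% inhibition of growth. TGI: total growth inhibition.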
Experiments:
Test in all cases: growth of human tumour cells (NCI), 48 h
[1] = tested on: SW-620 colon
[2] = tested on: BT-549 breast
[3] = tested on: HL-60(TB) leukemia
[4] = tested on: CCRF-CEM leukemia
[5] = tested on: NCI/ADR-RES ovarian
[6] = tested on: TK-10 renal
[7] = tested on: SK-OV-3 ovarian
[8] = tested on: OVCAR-5 ovarian
[9] = tested on: HOP-92 NSCLC
[10] = tested on: K-562 leukemia
[11] = tested on: HOP-62 NSCLC
[12] = tested on: 786-0 renal
[13] = tested on: SK-MEL-2 melanoma
[14] = tested on: SK-MEL-5 melanoma
[15] = tested on: T-47D breast
[16] = tested on: UACC-257 melanoma
[17] = tested on: COLO 205 colon
[18] = tested on: MALME-3M melanoma
[19] = tested on: NCI-H226 lung
[20] = tested on: UO-31 renal
[21] = tested on: SF-295 CNS
[22] = tested on: OVCAR-3 ovarian
[23] = tested on: OVCAR-4 ovarian
[24] = tested on: UACC-62 melanoma
[25] = tested on: MOLT-4 leukemia
[26] = tested on: CAKI-1 renal
[27] = tested on: DU-145 prostate
[28] = tested on: HT29 colon
[29] = tested on: MDA-MB-231 breast
[30] = tested on: HCC-2998 colon
[31] = tested on: MDA-MB-435
[32] = tested on: RPMI-8226 leukemia
[33] = tested on: HCT-15 colon
[34] = tested on: SR leukemia
[35] = tested on: KM12 colon
[36] = tested on: SNB-75 CNS
[37] = tested on: EKVX NSCLC
[38] = tested on: OVCAR-8 ovarian
[39] = tested on: HS 578T breast
[40] = tested on: IGROV1 ovarian
[41] = tested on: U251 CNS
[42] = tested on: SNB-19 CNS
[43] = tested on: ACHN renal
[44] = tested on: LOX IMVI melanoma
[45] = tested on: M14 melanoma
[46] = tested on: SF-539 CNS
[47] = tested on: A549 NSCLC
[48] = tested on: SF-268 CNS
[49] = tested on: NCI-H522 lung
[50] = tested on: HCT-116 colon
[51] = tested on: SN12C renal
[52] = tested on: MCF7 breast
[53] = tested on: RXF 393 renal
[54] = tested on: A498 renal
[55] = tested on: PC-3 prostate
[56] = tested on: NCI-H460 lung
[57] = tested on: SK-MEL-28 melanoma
[58] = tested on: NCI-H23 lung

`COCCNc1ccc2ncc(C#Cc3cncc(C(=O)Nc4ccc(CN5CCN(C)CC5)c(C(F)(F)F)c4)c3)n2n1` gave a GI50 [1] of 0.0831 µM, a TGI [1] of 0.257 µM and a GI50 [2] of 0.434 µM. For the same compound, the TGI [2] was 1.21 µM, the GI50 [3] was 0.134 µM and the TGI [3] was 0.566 µM. For the same compound, the GI50 [4] was 0.0249 µM, the TGI [4] was 6.68 µM and the GI50 [5] was 1.89 µM. For the same compound, the TGI [5] was 50 µM, the GI50 [6] was 0.232 µM and the TGI [6] was 0.729 µM. The GI50 [7] was 0.426 µM, the TGI [7] was 1.29 µM and the GI50 [8] was 0.234 µM. For the same compound, the TGI [8] was 1.4 µM, the GI50 [9] was 0.0503 µM and the TGI [9] was 0.229 µM. For the same compound, the GI50 [10] was 0.00989 µM, the TGI [10] was 0.54 µM and the GI50 [11] was 0.242 µM. The TGI [11] was 1.37 µM, the GI50 [12] was 0.236 µM and the TGI [12] was 0.939 µM. It also gave a GI50 [13] of 0.0978 µM, a TGI [13] of 0.273 µM and a GI50 [14] of 0.575 µM. It also gave a TGI [14] of 1.24 µM, a GI50 [15] of 0.325 µM and a TGI [15] of 1.58 µM. The GI50 [16] was 0.692 µM, the TGI [16] was 2.13 µM and the GI50 [17] was 0.12 µM. The TGI [17] was 0.294 µM, the GI50 [18] was 0.181 µM and the TGI [18] was 0.711 µM. It also gave a GI50 [19] of 0.147 µM, a TGI [19] of 0.98 µM and a GI50 [20] of 0.777 µM. The TGI [20] was 1.99 µM, the GI50 [21] was 0.708 µM and the TGI [21] was 3.33 µM. For the same compound, the GI50 [22] was 0.232 µM, the TGI [22] was 1.34 µM and the GI50 [23] was 0.352 µM. For the same compound, the TGI [23] was 2.03 µM, the GI50 [24] was 0.284 µM and the TGI [24] was 0.832 µM. The GI50 [25] was 0.0514 µM, the TGI [25] was 1.51 µM and the GI50 [26] was 0.113 µM. For the same compound, the TGI [26] was 0.327 µM, the GI50 [27] was 0.251 µM and the TGI [27] was 1.54 µM. The GI50 [28] was 0.198 µM, the TGI [28] was 0.954 µM and the GI50 [29] was 0.0823 µM. It also gave a TGI [29] of 0.333 µM, a GI50 [30] of 0.315 µM and a TGI [30] of 1.09 µM. The GI50 [31] was 0.142 µM, the TGI [31] was 0.843 µM and the GI50 [32] was 0.195 µM. For the same compound, the TGI [32] was 0.719 µM, the GI50 [33] was 0.18 µM and the TGI [33] was 0.715 µM. It also gave a GI50 [34] of 0.0783 µM, a TGI [34] of 0.76 µM and a GI50 [35] of 0.005 µM. The TGI [35] was 1.2 µM, the GI50 [36] was 0.0257 µM and the TGI [36] was 0.126 µM. For the same compound, the GI50 [37] was 0.186 µM, the TGI [37] was 0.807 µM and the GI50 [38] was 0.197 µM. It also gave a TGI [38] of 0.83 µM, a GI50 [39] of 0.0779 µM and a TGI [39] of 0.452 µM. For the same compound, the GI50 [40] was 0.123 µM, the TGI [40] was 0.639 µM and the GI50 [41] was 0.265 µM. It also gave a TGI [41] of 0.984 µM, a GI50 [42] of 0.289 µM and a TGI [42] of 1.82 µM. The GI50 [43] was 0.157 µM, the TGI [43] was 0.87 µM and the GI50 [44] was 0.0973 µM. For the same compound, the TGI [44] was 0.338 µM, the GI50 [45] was 0.125 µM and the TGI [45] was 0.408 µM. For the same compound, the GI50 [46] was 0.0414 µM, the TGI [46] was 0.215 µM and the GI50 [47] was 0.208 µM. It also gave a TGI [47] of 1.12 µM, a GI50 [48] of 0.156 µM and a TGI [48] of 0.737 µM. It also gave a GI50 [49] of 0.0998 µM, a TGI [49] of 0.315 µM and a GI50 [50] of 0.0804 µM. The TGI [50] was 0.387 µM, the GI50 [51] was 0.0888 µM and the TGI [51] was 0.766 µM. For the same compound, the GI50 [52] was 0.139 µM, the TGI [52] was 0.933 µM and the GI50 [53] was 0.145 µM. It also gave a TGI [53] of 0.432 µM, a GI50 [54] of 0.221 µM and a TGI [54] of 0.474 µM. It also gave a GI50 [55] of 0.254 µM, a TGI [55] of 2.13 µM and a GI50 [56] of 0.123 µM. The TGI [56] was 0.621 µM, the GI50 [57] was 0.402 µM and the TGI [57] was 1.3 µM.
`Cc1ccc2c(n1)C(=O)C(Cl)=C(Nc1cccc(C(C)C)c1)C2=O` showed a GI50 [1] of 1.94 µM, a TGI [1] of 4.03 µM and a GI50 [2] of 2.45 µM. For the same compound, the TGI [2] was 10.8 µM, the GI50 [3] was 1.73 µM and the TGI [3] was 6.41 µM. It also gave a GI50 [4] of 2.36 µM, a TGI [4] of 19.9 µM and a GI50 [5] of 2.49 µM. The TGI [5] was 9.13 µM, the GI50 [6] was 4.67 µM and the TGI [6] was 13.8 µM. It also gave a GI50 [7] of 13.2 µM, a TGI [7] of 26.7 µM and a GI50 [8] of 2.17 µM. For the same compound, the TGI [8] was 4.55 µM, the GI50 [9] was 1.76 µM and the TGI [9] was 3.58 µM. For the same compound, the GI50 [10] was 2.47 µM, the TGI [10] was > 100 µM and the GI50 [11] was 2.7 µM. For the same compound, the TGI [11] was 10.8 µM, the GI50 [12] was 2.18 µM and the TGI [12] was 5.44 µM. The GI50 [58] was 1.58 µM, the TGI [58] was 4.55 µM and the GI50 [13] was 3.72 µM. It also gave a TGI [13] of 12.8 µM, a GI50 [14] of 1.67 µM and a TGI [14] of 3.06 µM. For the same compound, the GI50 [15] was 1.61 µM, the TGI [15] was 4.15 µM and the GI50 [16] was 1.59 µM. The TGI [16] was 3.07 µM, the GI50 [17] was 3.33 µM and the TGI [17] was 12.1 µM. It also gave a GI50 [18] of 1.65 µM, a TGI [18] of 3.18 µM and a GI50 [19] of 1.48 µM. It also gave a TGI [19] of 3.59 µM, a GI50 [20] of 1.49 µM and a TGI [20] of 2.83 µM. The GI50 [21] was 3.5 µM, the TGI [21] was 11.5 µM and the GI50 [22] was 0.617 µM. The TGI [22] was 2.91 µM, the GI50 [23] was 1.35 µM and the TGI [23] was 2.64 µM. The GI50 [24] was 2.05 µM, the TGI [24] was 4.64 µM and the GI50 [25] was 2.27 µM. For the same compound, the TGI [25] was > 100 µM, the GI50 [26] was 1.88 µM and the TGI [26] was 6.22 µM. The GI50 [27] was 1.86 µM, the TGI [27] was 3.82 µM and the GI50 [28] was 3.84 µM. It also gave a TGI [28] of 31.4 µM, a GI50 [29] of 1.37 µM and a TGI [29] of 3.01 µM. The GI50 [30] was 3.95 µM, the TGI [30] was 13.7 µM and the GI50 [31] was 1.71 µM. For the same compound, the TGI [31] was 3.16 µM, the GI50 [32] was 1.5 µM and the TGI [32] was 5.18 µM. The GI50 [33] was 1.43 µM, the TGI [33] was 3.36 µM and the GI50 [34] was 1.63 µM. For the same compound, the TGI [34] was > 100 µM, the GI50 [35] was 4.94 µM and the TGI [35] was 28.6 µM. The GI50 [36] was 1.4 µM, the TGI [36] was 3.19 µM and the GI50 [37] was 1.59 µM. The TGI [37] was 3.24 µM, the GI50 [38] was 2.53 µM and the TGI [38] was 8.97 µM. For the same compound, the GI50 [39] was 2.29 µM, the TGI [39] was 6.16 µM and the GI50 [40] was 1.56 µM. It also gave a TGI [40] of 3.1 µM, a GI50 [41] of 2.94 µM and a TGI [41] of 11.1 µM. The GI50 [42] was 3.23 µM, the TGI [42] was 13.6 µM and the GI50 [43] was 1.69 µM. For the same compound, the TGI [43] was 3.12 µM, the GI50 [44] was 0.698 µM and the TGI [44] was 2.54 µM. It also gave a GI50 [45] of 2.94 µM, a TGI [45] of 10.1 µM and a GI50 [46] of 1.71 µM. For the same compound, the TGI [46] was 3.15 µM, the GI50 [47] was 3.66 µM and the TGI [47] was 14 µM. For the same compound, the GI50 [48] was 3.17 µM, the TGI [48] was 34.6 µM and the GI50 [49] was 2.25 µM. The TGI [49] was 5.6 µM, the GI50 [50] was 1.52 µM and the TGI [50] was 3.55 µM. The GI50 [51] was 1.76 µM, the TGI [51] was 4.54 µM and the GI50 [53] was 1.29 µM. The TGI [53] was 2.56 µM, the GI50 [54] was 6.56 µM and the TGI [54] was 19.9 µM. The GI50 [55] was 2.17 µM, the TGI [55] was 16.3 µM and the GI50 [56] was 3.42 µM. For the same compound, the TGI [56] was 13.5 µM, the GI50 [57] was 2.4 µM and the TGI [57] was 5.58 µM.

Reference: PubChem BioAssay (NCI)
